Consider three compounds from patent US10744213B2, “Fluorescent compounds for imaging of blood vessels and blood flow, and an in vivo screen for pro- and anti-angiogenic agents” (COLOSSUS BIOPHARMA CONSULTANTS COMPANY, LIMITED, priority 2017, dated 2020).

By LC50 is commonly meant the concentration lethal to half of the exposed cells or organisms.

The test system of one series is cow blood serum. Put plainly: Native PAGE of blood serum stained with the fluorescent compound (UV, fluorescence). To be noted: 25 μM stain. Format: binding.
For series [1], the system named is goldfish (Carassius auratus) blood serum. The description is as above. Conditions: 25 μM stain. The class given is binding.
Another series deals with zebrafish blood vessels. Kind of series: Staining of zebrafish blood vessels. Further details: species or system zebrafish (Danio rerio). Conditions: in vivo. An excerpt:
(§1) Another embodiment of the invention comprises contacting live zebrafish, wild type or not, at various development stages, with the fluorescent compounds. To achieve the contact, the fluorescent compounds can in general be formulated as a solution, in DMSO for instance, and added to the fish culture. […] The fluorescent compounds enter the zebrafish vascular system as a result of such treatment, causing the blood vessels to fluoresce upon excitation and the fluorescence image of the blood vessels and the motion of blood flow can be observed with a microscope. The images can also be recorded with an image capturing device such as a camera. […] Further advantage of the current invention, which is in significant contrast to the transgenic zebrafish models, resides in the fact that the fluorescent compounds are exogenously administered and can be allowed to clear out of the test animals when so desired (see Figure I), such as when further procedures are required with the test animals and the fluorescence may interfere. […]

The nature of series [2]: Acute toxicity on zebrafish over a five-day regimen. The arrangement: species or system zebrafish (Danio rerio). Conditions: in vivo, other: added to the fish culture (immersion), calculated using the Benchmark Dose Software (BMDS).
For the next series, the system named is zebrafish. The class given is in vivo, zebrafish (Danio rerio). To be noted: after staining at 10 μM for 1 hour, continuous culture in RO water.
Text: as §1

On to `CCOC(=O)c1cn(-c2ccccc2)nc1-c1ccccc1` [Ethyl 1,3-diphenyl-1H-pyrazole-4-carboxylate], for which the “Staining of serum bands on Native PAGE” value (with cow blood serum; in series [1]) was “UV as well as matching blue fluorescence” in each case.
As for `CCOC(=O)c1ccc(C2CC(c3cc4cc(OC)ccc4oc3=O)=NN2c2ccc(C(=O)OCC)cc2)cc1` (centres unmarked) [Diethyl 4,4′-(3-(6-methoxy-2-oxo-2H-chromen-3-yl)-4,5-dihydro-1H-pyrazole-1,5-diyl)dibenzoate], the “Regular working concentration for staining zebrafish blood vessels” value in the series with zebrafish blood vessels is 10 to 25 µM. Also, the LC50 at 5 days in series [2] is 272 µM.
On to `CCOC(=O)c1ccc(N2N=C(c3cc4cc(OC)ccc4oc3=O)CC2c2ccccc2)cc1` (centres unmarked) [Ethyl 4-(3-(6-methoxy-2-oxo-2H-chromen-3-yl)-5-phenyl-4,5-dihydro-1H-pyrazol-1-yl)benzoate], for which, in the series with zebrafish, the “Clearance of the dye (fading of green fluorescence)” value was “incremental fading of green fluorescence over time within the first 6 hours”.
